Assay [1] relates to SIPs. Kind of assay: In vitro reprogramming of SIPs, flow cytometry for hematopoietic surface markers. Format: cell-based, human. Particulars: the two small molecules alone, without RUNX1C. The source says: Heparinized human BM was obtained from healthy donors after informed consent, according to guidelines from the Office of Human Research Protection at the University of Nevada at Reno, Wake Forest Health Sciences, or from commercially available sources (AllCells, LLC, Alameda Calif.). Low density BM mononuclear cells (BMNC) were separated by Ficoll density gradient (1.077 g/ml Sigma, St. Louis, Mo.) and washed twice in Iscove's modified Dulbecco's medium (Invitrogen, Carlsbad, Calif.). Stro-1+ MSC were then isolated using anti-Stro-1 antibody (R&D Systems, Minneapolis, Minn.) and magnetic bead cell sorting (Miltenyi Biotec, Inc., Auburn, Calif.) according to manufacturer's guidelines. Stro-1+ cells were then cultured at low density in 0.02% gelatin (Sigma, St Louis, Mo.) coated flasks using Mesenchymal Stem Cell Growth Medium (MSCGM™, Lonza, Walkersville, Md.) in a humidified 37° C. incubator at 5% CO2.
BM-MSC were transduced on 6-well plates with Oct4- or RUNX1C-encoding lentiviral vector, alone or in combination (or an eGFP-encoding lentiviral vector as a control), at a multiplicity of infection (MOI) of 50 for each vector. Twenty four hours after transduction, the vector-containing media was removed and replaced with fresh MSCGM™ (Lonza). […]
Background: In flow cytometry, cells or beads pass a laser one at a time.

Assay [2] concerns SIPs. Kind of assay: Culture conditions for reprogramming of SIPs (data not shown). The format is cell-based, human. The conditions noted are these: the two factors alone, preliminary studies. The source says:
Cultures may be performed in defined serum-free media. This will to facilitate clinical grade production of hematopoietic cells. SIPS ([…]) may be plated in 100 mm gelatin-coated culture plates using serum-free TheraPEAK® MSCGM-CD Mesenchymal Stem Cell Medium (Lonza). Sixteen hours later they may be transduced overnight with the lentivector encoding RUNX1c at an MOI of ˜10. A control group may be transduced with an identical lentivector expressing EGFP to judge transduction efficiency (usually ˜80-90%) and to assess the precision of the cumate “switch”. The following day, the medium may be changed to DMEM/F12/+20% KOSR/1×NEAA/0.1 mM 2-ME/containing rhFGF2 (20 ng/ml) and rhIGFII (30 ng/ml). […] At the same time, media may be supplemented with cumate to turn on expression of RUNX1c (or EGFP) and with VPA (1 mM final concentration) and Bix-01294 (2 μM final concentration).
In order to facilitate differentiation of the HSC into all lineages or into hematopoietic cells having good engraftment potential, additional growth factors, such as TPO and BMP4, may be incorporated into the culture medium. […]

Take `COc1cc2nc(N3CCCN(C)CC3)nc(NC3CCN(Cc4ccccc4)CC3)c2cc1OC` [Bix-01294]: the “expression of CD41 or CD34” value in assay [1] is recorded as “did not induce significant expression”.

As for `CCCC(CCC)C(=O)O` [VPA, valproic acid], the “expression of CD41 or CD34” value in assay [1] is listed as “did not induce significant expression”.

“rhFGF2: recombinant human FGF2 medium supplement”: in assay [2], the “reprogramming of SIPs to the hematopoietic lineage” value is reported as “some ability to support some degree of reprogramming”.

For the compound “rhIGFII: recombinant human IGF-II medium supplement”, in assay [2], the “reprogramming of SIPs to the hematopoietic lineage” value is recorded as “some ability to support some degree of reprogramming”.

Source of the values: patent US20160130554A1, “Reprogramming Mesenchymal Stromal Cells Into Hematopoietic Cells” (Wake Forest University Health Sciences, priority 2014, published 2016).
